Assays:
MDA-MB-231 = experiment: Antiproliferative activity against human MDA-MB-231 cells assessed as inhibition of cell growth incubated for 24 hrs by MTT assay; type: functional, cell-based; settings: MDA-MB-231, 24 h
MDA-MB-468 = experiment: Antiproliferative activity against human MDA-MB-468 cells assessed as inhibition of cell growth incubated for 24 hrs by MTT assay; type: functional, cell-based; settings: MDA-MB-468, 24 h
[1] = target: Cyclin-dependent kinase 12 (Homo sapiens, UniProt Q9NYV4); experiment: Inhibition of CDK12 (unknown origin) at 1 uM in presence of ATP by kinase-glo plus luminescent assay relative to control
MDA-MB-436 = experiment: Antiproliferative activity against human MDA-MB-436 cells assessed as inhibition of cell growth incubated for 24 hrs by MTT assay; type: functional, cell-based; settings: Homo sapiens, MDA-MB-436, 24 h

Chain of Cyclin-dependent kinase 12 (Q9NYV4 whole entry, looked up): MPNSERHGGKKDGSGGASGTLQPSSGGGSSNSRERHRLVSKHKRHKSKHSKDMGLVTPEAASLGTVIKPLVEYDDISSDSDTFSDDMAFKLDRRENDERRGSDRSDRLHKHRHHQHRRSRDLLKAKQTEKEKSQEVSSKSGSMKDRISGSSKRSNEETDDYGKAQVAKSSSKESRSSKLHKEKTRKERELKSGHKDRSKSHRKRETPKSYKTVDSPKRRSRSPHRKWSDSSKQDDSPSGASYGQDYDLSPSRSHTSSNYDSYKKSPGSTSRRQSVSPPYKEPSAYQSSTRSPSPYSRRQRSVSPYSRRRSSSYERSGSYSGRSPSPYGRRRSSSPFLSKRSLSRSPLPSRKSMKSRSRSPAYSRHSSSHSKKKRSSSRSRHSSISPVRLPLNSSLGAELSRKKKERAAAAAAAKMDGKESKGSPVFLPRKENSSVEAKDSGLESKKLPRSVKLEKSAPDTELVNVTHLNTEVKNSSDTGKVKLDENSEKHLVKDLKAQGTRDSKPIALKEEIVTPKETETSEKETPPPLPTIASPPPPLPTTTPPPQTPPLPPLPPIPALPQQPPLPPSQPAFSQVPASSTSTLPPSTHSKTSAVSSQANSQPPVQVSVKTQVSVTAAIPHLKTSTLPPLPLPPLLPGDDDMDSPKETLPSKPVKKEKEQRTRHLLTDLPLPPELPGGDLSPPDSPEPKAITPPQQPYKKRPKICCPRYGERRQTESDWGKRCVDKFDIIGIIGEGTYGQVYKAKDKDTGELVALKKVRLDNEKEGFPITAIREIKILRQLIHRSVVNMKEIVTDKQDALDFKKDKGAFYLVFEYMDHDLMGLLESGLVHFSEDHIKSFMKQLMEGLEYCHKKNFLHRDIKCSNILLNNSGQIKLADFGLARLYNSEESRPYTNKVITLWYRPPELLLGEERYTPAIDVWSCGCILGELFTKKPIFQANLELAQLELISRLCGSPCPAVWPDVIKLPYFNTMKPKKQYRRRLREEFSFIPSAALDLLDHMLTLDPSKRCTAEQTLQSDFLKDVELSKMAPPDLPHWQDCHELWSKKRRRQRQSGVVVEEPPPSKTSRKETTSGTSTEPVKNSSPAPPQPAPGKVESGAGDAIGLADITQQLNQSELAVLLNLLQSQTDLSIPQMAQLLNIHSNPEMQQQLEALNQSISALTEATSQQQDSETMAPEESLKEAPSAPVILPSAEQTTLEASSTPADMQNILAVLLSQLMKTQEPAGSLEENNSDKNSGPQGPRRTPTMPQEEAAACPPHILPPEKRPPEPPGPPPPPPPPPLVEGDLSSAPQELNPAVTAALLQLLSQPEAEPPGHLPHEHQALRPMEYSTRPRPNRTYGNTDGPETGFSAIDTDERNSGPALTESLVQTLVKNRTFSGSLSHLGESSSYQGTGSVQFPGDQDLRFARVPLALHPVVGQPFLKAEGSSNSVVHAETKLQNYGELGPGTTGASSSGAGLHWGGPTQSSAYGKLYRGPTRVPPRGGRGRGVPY

IC50 (MDA-MB-231) [µM]	IC50 (MDA-MB-468) [µM]	inhibition [1] [%]	IC50 (MDA-MB-436) [µM]	SMILES
> 30	> 30	25.6	> 30	NC(=O)c1cccc2[nH]c(NC(=O)c3cccc(C(=O)N4CCC(Nc5ccc(Br)cn5)CC4)c3)nc12
> 30	> 30	16.8	> 30	NC(=O)c1cccc2[nH]c(NC(=O)c3ccc(C(=O)N4CCC(Nc5nccc(C(F)(F)F)n5)CC4)cc3)nc12
> 30	> 30	27.5	> 30	N#Cc1cnc(NC2CCN(C(=O)c3ccc(C(=O)Nc4nc5c(C(N)=O)cccc5[nH]4)cc3)CC2)nc1
27.4	28.9	31.5	25.6	COc1cnc(NC2CCN(C(=O)c3ccc(C(=O)Nc4nc5c(C(N)=O)cccc5[nH]4)cc3)CC2)nc1
> 30	27.7	40.8	28.9	NC(=O)c1cccc2[nH]c(NC(=O)c3ccc(CN4CCC(Nc5ncc(I)cn5)CC4)cc3)nc12
> 30	> 30	30.3	> 30	NC(=O)c1cccc2[nH]c(NC(=O)c3ccc(CN4CCC(Nc5ncc(F)cn5)CC4)cc3)nc12
> 30	> 30	1.3	> 30	Cc1cnc(NC2CCN(C(=O)c3cccc(C(=O)Nc4nc5c(C(N)=O)cccc5[nH]4)c3)CC2)nc1
24.9	23.5	50.7	20.8	NC(=O)c1cccc2[nH]c(NC(=O)c3ccc(C(=O)N4CCC(Nc5ncc(Cl)cn5)CC4)cc3)nc12
> 30	> 30	28.5	> 30	N#Cc1cnc(N2CCN(C(=O)c3ccc(C(=O)Nc4nc5c(C(N)=O)cccc5[nH]4)cc3)CC2)nc1
> 30	> 30	31.6	> 30	NC(=O)c1cccc2[nH]c(NC(=O)c3cccc(C(=O)N4CCN(c5ncc(F)cn5)CC4)c3)nc12
> 30	> 30	32.6	> 30	N#Cc1cnc(N2CCN(C(=O)c3cccc(C(=O)Nc4nc5c(C(N)=O)cccc5[nH]4)c3)CC2)nc1
> 30	> 30	21.7	> 30	N#Cc1cnc(NC2CCN(C(=O)c3cccc(C(=O)Nc4nc5c(C(N)=O)cccc5[nH]4)c3)CC2)nc1
20.1	21.8	49.6	20.9	NC(=O)c1cccc2[nH]c(NC(=O)c3cccc(C(=O)N4CCN(c5ncc(I)cn5)CC4)c3)nc12
26.8	27.3	39.8	25.7	NC(=O)c1cccc2[nH]c(NC(=O)c3ccc(C(=O)N4CCN(c5ccc(C(F)(F)F)cn5)CC4)cc3)nc12
25.4	24.1	44.1	> 30	NC(=O)c1cccc2[nH]c(NC(=O)c3cccc(C(=O)N4CCN(c5ncc(Cl)cn5)CC4)c3)nc12

Continued, compound first:

SMILES	IC50 (MDA-MB-231) [µM]	IC50 (MDA-MB-468) [µM]	inhibition [1] [%]	IC50 (MDA-MB-436) [µM]
NC(=O)c1cccc2[nH]c(NC(=O)c3ccc(CN4CCC(Nc5ncc(Cl)cn5)CC4)cc3)nc12	27	> 30	43.1	25.8
NC(=O)c1cccc2[nH]c(NC(=O)c3ccc(CN4CCC(Nc5ncc(Br)cn5)CC4)cc3)nc12	26.5	25.7	45.4	24.2
CCc1cnc(NC2CCN(C(=O)c3ccc(C(=O)Nc4nc5c(C(N)=O)cccc5[nH]4)cc3)CC2)nc1	24.5	24.3	44.1	22.3
NC(=O)c1cccc2[nH]c(NC(=O)c3ccc(C(=O)N4CCC(Nc5ccc(Br)cn5)CC4)cc3)nc12	> 30	> 30	25.9	> 30
NC(=O)c1cccc2[nH]c(NC(=O)c3ccc(C(=O)N4CCC(Nc5ncc(Br)cn5)CC4)cc3)nc12	19.5	21.3	55.4	17.2
NC(=O)c1cccc2[nH]c(NC(=O)c3ccc(C(=O)N4CCN(c5ncc(I)cn5)CC4)cc3)nc12	25.8	26.3	45.2	22.9
NC(=O)c1cccc2[nH]c(NC(=O)c3cccc(C(=O)N4CCN(c5ccc(C(F)(F)F)cn5)CC4)c3)nc12	25.4	27.5	46.4	24.6
NC(=O)c1cccc2[nH]c(NC(=O)c3cccc(C(=O)N4CCC(Nc5ncc([N+](=O)[O-])cn5)CC4)c3)nc12	> 30	> 30	5.4	> 30
CCc1cnc(NC2CCN(C(=O)c3cccc(C(=O)Nc4nc5c(C(N)=O)cccc5[nH]4)c3)CC2)nc1	24.2	23.1	48.7	21.3
NC(=O)c1cccc2[nH]c(NC(=O)c3ccc(C(=O)N4CCC(Nc5ncc(C(F)(F)F)cn5)CC4)cc3)nc12	22.8	25.2	54.6	23.2
NC(=O)c1cccc2[nH]c(NC(=O)c3cccc(C(=O)N4CCC(Nc5ncccn5)CC4)c3)nc12	> 30	> 30	25	> 30
NC(=O)c1cccc2[nH]c(NC(=O)c3ccc(C(=O)N4CCN(c5ncc(F)cn5)CC4)cc3)nc12	> 30	> 30	19.8	> 30
NC(=O)c1cccc2[nH]c(NC(=O)c3cccc(C(=O)N4CCN(c5ncc(C(F)(F)F)cn5)CC4)c3)nc12	18.9	19.3	52.1	17.8
NC(=O)c1cccc2[nH]c(NC(=O)c3ccc(S(=O)(=O)N4CCC(Nc5ncc(Br)cn5)CC4)cc3)nc12	26.6	24.6	77.6	> 30
Cc1cnc(NC2CCN(C(=O)c3ccc(C(=O)Nc4nc5c(C(N)=O)cccc5[nH]4)cc3)CC2)nc1	25.5	27.6	35.6	23
NC(=O)c1cccc2[nH]c(NC(=O)c3cccc(C(=O)N4CCC(Nc5ccc(I)cn5)CC4)c3)nc12	> 30	> 30	30.1	> 30

SMILES	IC50 (MDA-MB-231) [µM]	IC50 (MDA-MB-468) [µM]	inhibition [1] [%]	IC50 (MDA-MB-436) [µM]
NC(=O)c1cccc2[nH]c(NC(=O)c3ccc(C(=O)N4CCC(Nc5ccc(I)cn5)CC4)cc3)nc12	> 30	> 30	29.8	> 30
NC(=O)c1cccc2[nH]c(NC(=O)c3ccc(C(=O)N4CCN(c5ncc(Br)cn5)CC4)cc3)nc12	24.2	25.1	41.6	23.6
NC(=O)c1cccc2[nH]c(NC(=O)c3ccc(C(=O)N4CCN(c5ncc(Cl)cn5)CC4)cc3)nc12	28.2	27.3	37.4	27.6
NC(=O)c1cccc2[nH]c(NC(=O)c3cccc(C(=O)N4CCC(Nc5ccc(C(F)(F)F)cn5)CC4)c3)nc12	> 30	> 30	19.8	> 30
NC(=O)c1cccc2[nH]c(NC(=O)c3cccc(C(=O)N4CCN(c5ncc(Br)cn5)CC4)c3)nc12	24.5	23.7	46.2	22.1
NC(=O)c1cccc2[nH]c(NC(=O)c3ccc(S(=O)(=O)N4CCC(Nc5ncc(C(F)(F)F)cn5)CC4)cc3)nc12	26.7	25.3	69.9	27.1
NC(=O)c1cccc2[nH]c(NC(=O)c3ccc(CN4CCC(Nc5ncc(C(F)(F)F)cn5)CC4)cc3)nc12	26.9	27.3	34	> 30
NC(=O)c1cccc2[nH]c(NC(=O)c3ccc(C(=O)N4CCN(c5ncc(C(F)(F)F)cn5)CC4)cc3)nc12	24.1	24.2	43	23.9
NC(=O)c1cccc2[nH]c(NC(=O)c3ccc(C(=O)N4CCC(Nc5ncc([N+](=O)[O-])cn5)CC4)cc3)nc12	> 30	> 30	24.1	> 30
NC(=O)c1cccc2[nH]c(NC(=O)c3ccc(C(=O)N4CCC(Nc5ccc(C(F)(F)F)cn5)CC4)cc3)nc12	> 30	> 30	26.7	> 30
N#Cc1ccc(NC2CCN(C(=O)c3ccc(C(=O)Nc4nc5c(C(N)=O)cccc5[nH]4)cc3)CC2)nc1	> 30	> 30	13.3	> 30
NC(=O)c1cccc2[nH]c(NC(=O)c3ccc(C(=O)N4CCC(Nc5ncc(I)cn5)CC4)cc3)nc12	19.3	18.5	61.7	16.5
NC(=O)c1cccc2[nH]c(NC(=O)c3ccc(C(=O)N4CCC(Nc5ncc(F)cn5)CC4)cc3)nc12	28.7	26.4	38.8	24.4
NC(=O)c1cccc2[nH]c(NC(=O)c3ccc(C(=O)N4CCC(Nc5ncccn5)CC4)cc3)nc12	30	28.7	32.4	25
COc1cnc(NC2CCN(C(=O)c3cccc(C(=O)Nc4nc5c(C(N)=O)cccc5[nH]4)c3)CC2)nc1	25.2	27.9	36.4	22.7
